Data set [1] has as its target T1, VMAT2 (Homo sapiens, UniProt Q05940). The data set is described as follows: hVMAT2 [3H]DTBZ ([3H]DHTB) binding assay. More on the design: expressed in transfected cells; host or cells: HEK (human embryonic kidney) cells. The procedure:
(§1) Membrane preparation for binding, uptake and release assays using HEK-hVMAT2 cells: Human embryonic kidney cells expressing the human vesicular monoamine transporter 2 (HEK-hVMAT2) were used. HEK-hVMAT2 cells were grown until confluent. The media was removed from plates, solution A [sucrose (0.32 M) with protease inhibitors] was added to the plate, and cells were scraped from plate. Cells were homogenized with 12 strokes of a glass/glass homogenizer. The homogenate was centrifuged at 800×g for 10 min. The supernatant was removed and saved, and the pellet was resuspended, homogenized and centrifuged as above. The supernatants were combined and centrifuged at 10,000×g for 20 min. The pellet was resuspended in solution A (0.75 ml). The membranes were osmotically shocked by addition of 2.625 ml ice cold water and homogenized by 5 strokes of a glass/Teflon homogenizer. The osmolarity was reestablished with addition of Tris (338 μl, 0.25M, pH 7.4 at 4° C.), sodium potassium tartrate (338 μl, 1.0 M), and MgSO4 (4 μl, 0.9M). The homogenate was centrifuged at 20,000×g for 20 min.
Binding was terminated by filtration over Whatman GF/C filters using a Tomtec 96-well cell harvester. Filters were washed for six seconds with ice-cold saline. Scintillation fluid was added to each square and radioactivity remaining on the filters was determined using a Wallac μ- or beta-plate reader. Specific binding was defined as the difference in binding observed in the presence and absence of Ro4-1284 (10 μM, generously supplied by Hoffman LaRoche). Three or more independent competition experiments were conducted with duplicate determinations.

The target in data set [2] is T1, VMAT2. As to the kind of experiment: hVMAT2 5HT Uptake. Format: biochemical. More on the design: expressed in transfected cells; host or cells: HEK (human embryonic kidney) cells. The procedure:
as §1

The mark [3] stands for this setting: cells printed in μM under a head in nM, HEK-hVMAT2 membranes.
Setting [4] is: [^3H]5HT uptake, HEK-hVMAT2 preparation, read-out: hVMAT2 5HT Uptake IC50 (nM) ± SEM.

Structures can show the parent of a compound that is named as a salt. Where two headings read alike, the source gives them in different places.

Our source for the melting point, Ki and IC50 values is patent US9546151B2, “VMAT inhibitory compounds” (Oregon Health & Science University, priority 2014, dated 2017).

By melting point is commonly meant the temperature of the solid-liquid transition. The Ki is a dissociation constant, usually derived from enzyme kinetics or from competition with a known ligand. As a reminder, the IC50 is the concentration that gives 50% inhibition.

T1 sequence (Q05940 whole entry): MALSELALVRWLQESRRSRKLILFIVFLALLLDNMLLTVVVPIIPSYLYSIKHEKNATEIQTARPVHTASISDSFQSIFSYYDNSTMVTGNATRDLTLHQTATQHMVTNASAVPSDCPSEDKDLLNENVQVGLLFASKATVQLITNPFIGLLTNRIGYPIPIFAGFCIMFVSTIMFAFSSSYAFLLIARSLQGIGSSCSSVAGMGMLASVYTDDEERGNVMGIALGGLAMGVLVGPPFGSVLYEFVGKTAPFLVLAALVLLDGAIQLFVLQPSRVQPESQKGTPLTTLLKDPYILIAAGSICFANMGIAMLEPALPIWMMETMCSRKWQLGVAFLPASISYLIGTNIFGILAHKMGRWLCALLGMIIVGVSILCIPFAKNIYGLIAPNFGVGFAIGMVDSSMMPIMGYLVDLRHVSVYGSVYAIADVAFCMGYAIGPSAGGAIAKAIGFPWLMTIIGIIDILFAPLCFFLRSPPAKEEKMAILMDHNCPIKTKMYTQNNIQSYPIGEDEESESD

As to `CCOC(=O)[C@@H]1CN(CCn2c(=O)[nH]c3sccc3c2=O)CC[C@@H]1c1cccc(C(F)(F)F)c1` (relative stereo) [Compound 7d, syn-ethyl 1-(2-(2,4-dioxo-1,2-dihydrothieno[2,3-d]pyrimidin-3(4H)-yl)ethyl)-4-(3-(trifluoromethyl)phenyl)piperidine-3-carboxylate], the melting point was in the range of 153.5 to 156.5 °C. Further, the Ki at VMAT2 [1] (setting [3]) is above 10 µM. Besides, the IC50 at VMAT2 [2] (setting [4]) is 342 ± 103 nM.

Molecule `CCOC(=O)[C@@H]1CN(CCn2c(=O)[nH]c3sccc3c2=O)CC[C@@H]1c1ccc(C(F)(F)F)cc1` (racemic) [Compound 7c, (±) syn-ethyl 1-(2-(2,4-dioxo-1,2-dihydrothieno[2,3-d]pyrimidin-3(4H)-yl)ethyl)-4-(4-(trifluoromethyl)phenyl)piperidine-3-carboxylate] registered a melting point of 190.3 to 191.5 °C. Besides, the Ki on VMAT2 [1] (setting [3]) was above 10 µM. For the same molecule, at VMAT2 [2] (setting [4]), the IC50 was determined as 1470 ± 65 nM. On to `CCOC(=O)[C@@H]1CN(CCn2c(=O)[nH]c3ccccc3c2=O)CC[C@@H]1c1cccc(Cl)c1` (racemic) [Compound 5pp, (±) syn-ethyl 4-(3-chlorophenyl)-1-(2-(2,4-dioxo-1,2-dihydroquinazolin-3(4H)-yl)ethyl)piperidine-3-carboxylate], for which the melting point lay in the range of 161.8 to 162.9 °C. For the same molecule, the Ki on VMAT2 [1] (setting [3]) is above 9 µM. At VMAT2 [2] (setting [4]), the IC50 was 34 ± 8 nM. For `CCOC(=O)[C@@H]1CN(CCn2c(=O)[nH]c3sccc3c2=O)CC[C@@H]1c1cccc(F)c1` (racemic) [Compound 7b, (±) syn-ethyl 1-(2-(2,4-dioxo-1,2-dihydrothieno[2,3-d]pyrimidin-3(4H)-yl)ethyl)-4-(3-fluorophenyl)piperidine-3-carboxylate] the same measures were 153.3 to 155.1 °C, above 10 µM and 200 ± 51 nM.

Molecule `CCOC(=O)[C@@H]1CN(CCn2c(=O)[nH]c3ccccc3c2=O)CC[C@@H]1c1ccc([N+](=O)[O-])cc1` (racemic) [Compound 5tt, (±)-syn-Ethyl 4-(4-nitrophenyl)-1-(2-(2,4-dioxo-1,2-dihydroquinazolin-3(4H)-yl)ethyl)piperidine-3-carboxylate] registered a melting point of 216 to 217.4 °C. Further, the Ki at VMAT2 [1] (setting [3]) is above 10 µM. Moreover, the IC50 on VMAT2 [2] (setting [4]) came out at 758 ± 165 nM. As for `CCOC(=O)[C@H]1CN(CCn2c(=O)[nH]c3ccccc3c2=O)CC[C@H]1c1ccc(O)c(O)c1` (racemic) (as salt: HCl) [Compound 5ff, (±)-syn-Ethyl 4-(3,4-dihydroxyphenyl)-1-(2-(2,4-dioxo-1,2-dihydroquinazolin-3(4H)-yl)ethyl)piperidine-3-carboxylate], the melting point lay within 167 to 168.5 °C. The same measure, in the same setting: the result for `CCOC(=O)[C@@H]1CN(CCn2c(=O)c3ccccc3n(C)c2=O)CC[C@@H]1c1ccc(F)cc1` (racemic) [Compound 6a, (±) syn-ethyl 4-(4-fluorophenyl)-1-(2-(1-methyl-2,4-dioxo-1,2-dihydroquinazolin-3(4H)-yl)ethyl)piperidine-3-carboxylate] reads 131.1 to 133 °C; that for `CCOC(=O)C1=C(c2ccc(F)cc2)CCN(CCn2c(=O)[nH]c3ccccc3c2=O)C1`, 150 to 152 °C; that for `CCOC(=O)[C@H]1CN(CCn2c(=O)[nH]c3ccccc3c2=O)CC[C@H]1c1ccc(OC)c(OC)c1` (racemic) (as salt: HCl) [Compound 5dd, (±)-syn-Ethyl 4-(3,4-dimethoxyphenyl)-1-(2-(2,4-dioxo-1,2-dihydroquinazolin-3(4H),-yl)ethyl) piperidine-3-carboxylate], 154.5 to 155.5 °C. In turn, `CCOC(=O)[C@H]1CN(CCn2c(=O)[nH]c3ccccc3c2=O)CC[C@H]1c1ccc(CC)cc1` (racemic) (as salt: HCl) [Compound 5t, (±)-syn-Ethyl 1-(2-(2,4-dioxo-1,2-dihydroquinazolin-3(4H),-yl)ethyl)-4-(4-ethylphenyl) piperidine-3-carboxylate] had a melting point of 145 to 146 °C. The same measure, in the same setting: the result for `CCOC(=O)[C@H]1CN(CCn2c(=O)[nH]c3ccccc3c2=O)CC[C@H]1c1ccc(OC)cc1` (racemic) (as salt: HCl) [Compound 5r, (±)-syn-Ethyl 1-(2-(2,4-dioxo-1,2-dihydroquinazolin-3(4H),-yl)ethyl)-4-(4-methoxyphenyl) piperidine-3-carboxylate] reads 153 to 154 °C.

Consider `CCOC(=O)[C@@H]1CN(CCn2c(=O)c3ccccc3n(Cc3ccccc3)c2=O)CC[C@@H]1c1ccc(F)cc1` (racemic) [Compound 6c, (±) syn-ethyl 1-(2-(1-benzyl-2,4-dioxo-1,2-dihydroquinazolin-3(4H)-yl)ethyl)-4-(4-fluorophenyl)piperidine-3-carboxylate], for which the melting point was 134.9 to 136.4 °C. The molecule also yielded a Ki at VMAT2 [1] (setting [3]) above 7 µM. Also, on VMAT2 [2] (setting [4]), the IC50 was found to be 270 ± 53 nM. The molecule `CC(C)OC(=O)[C@H]1CN(CCn2c(=O)[nH]c3ccccc3c2=O)CC[C@H]1c1ccc(F)cc1` (racemic) (as salt: HCl) [Compound 10b, (±)-syn-Isopropyl 1-(2-(2,4-dioxo-1,2-dihydroquinazolin-3(4H),-yl)ethyl)-4-(4-fluorophenyl)piperidine-3-carboxylate] yielded a melting point of 157.5 to 159 °C. In turn, `CCOC(=O)[C@@H]1CN(CCn2c(=O)[nH]c3ccccc3c2=O)CC[C@@H]1c1ccc(F)c(F)c1` (racemic) [Compound 5ss, (±)-syn-Ethyl 4-(3,4-difluorophenyl)-1-(2-(2,4-dioxo-1,2-dihydroquinazolin-3(4H)-yl)ethyl)piperidine-3-carboxylate] came in with a melting point of 196.6 to 198.4 °C. Further, the Ki on VMAT2 [1] (setting [3]) is above 10 µM. In addition, at VMAT2 [2] (setting [4]), the IC50 came out at 100 ± 19 nM.

In turn, `CCOC(=O)[C@H]1CN(CCn2c(=O)[nH]c3ccccc3c2=O)CC[C@H]1CCc1ccccc1` (racemic) (as salt: HCl) [Compound 5v, (±)-syn-Ethyl 1-(2-(2,4-dioxo-1,2-dihydroquinazolin-3(4H)-yl)ethyl)-4-phenethylpiperidine-3-carboxylate] returned a melting point of 140 to 141 °C.

Regarding `CCOC(=O)C1=C(c2ccccc2C(F)(F)F)CCN(CCn2c(=O)[nH]c3ccccc3c2=O)C1` (as salt: HCl) [Compound 5hh, Ethyl 1-(2-(2,4-dioxo-1,2-dihydroquinazolin-3(4H)-yl)ethyl)-4-(2-(trifluoromethyl)phenyl)-1,2,5,6-tetrahydropyridine-3-carboxylate], the melting point lay in the range of 153.5 to 154.5 °C. Take `CCOC(=O)[C@@H]1CN(CCn2c(=O)[nH]c3ccccc3c2=O)CC[C@@H]1c1ccc(Cl)cc1` (racemic) [Compound 5oo, (±) syn-ethyl 4-(4-chlorophenyl)-1-(2-(2,4-dioxo-1,2-dihydroquinazolin-3(4H)-yl)ethyl)piperidine-3-carboxylate]: the melting point was in the range of 194.8 to 196.1 °C. Further, the inhibitory constant (Ki) at VMAT2 [1] (setting [3]) was above 10 µM. For the same molecule, at VMAT2 [2] (setting [4]), the IC50 turned out to be 49 ± 1 nM. In turn, `CCOC(=O)[C@H]1CN(CCn2c(=O)[nH]c3ccccc3c2=O)CC[C@H]1c1ccccc1N(C)C` (racemic) (as salt: HCl) [Compound 5bb, (±)-syn-Ethyl 4-(2-(dimethylamino)phenyl)-1-(2-(2,4-dioxo-1,2-dihydroquinazolin-3(4H),-yl)ethyl) piperidine-3-carboxylate] had a melting point of 208 to 209 °C. Regarding `CCOC(=O)[C@H]1CN(CCCCn2c(=O)[nH]c3ccccc3c2=O)CC[C@H]1c1ccc(F)cc1` (racemic) [n=3, (±)-syn-Ethyl 1-(4-(2,4-dioxo-1,2-dihydroquinazolin-3(4H)-yl)butyl)-4-(4-fluorophenyl)piperidine-3-carboxylate], the melting point is 148.5 to 149.7 °C. On VMAT2 [1], this molecule gave a Ki above 10 µM. Half-maximal inhibition on VMAT2 [2] (IC50) required 133 ± 52 nM.

The molecule `CCOC(=O)[C@H]1CN(CCn2c(=O)[nH]c3ccccc3c2=O)CC[C@H]1c1cccc(C)c1` (racemic) (as salt: HCl) [Compound 5y, (±)-syn-Ethyl 1-(2-(2,4-dioxo-1,2-dihydroquinazolin-3(4H),-yl)ethyl)-4-(m-tolyl)piperidine-3-carboxylate] had a melting point of 148.5 to 150 °C.

Regarding `CCOC(=O)[C@H]1CN(CCn2c(=O)[nH]c3ccccc3c2=O)CC[C@H]1c1ccccc1C` (racemic) (as salt: HCl) [Compound 5z, (±)-syn-Ethyl 1-(2-(2,4-dioxo-1,2-dihydroquinazolin-3(4H),-yl)ethyl)-4-(o-tolyl)piperidine-3-carboxylate], the melting point was in the range of 174 to 175 °C. `CCCn1c(=O)n(CCN2CC[C@H](c3ccc(F)cc3)[C@H](C(=O)OCC)C2)c(=O)c2ccccc21` (racemic) [Compound 6b, (±) syn-ethyl 1-(2-(2,4-dioxo-1-propyl-1,2-dihydroquinazolin-3(4H)-yl)ethyl)-4-(4-fluorophenyl)piperidine-3-carboxylate] gave a melting point of 96.8 to 97.7 °C.
